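Interpolation was linear, between the two tested concentrations surrounding the appropriate level; five concentrations were tested over 48 hours in 96-well plates. GI50 = concentration required for 50% inhibition of growth.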 Calls of active or inactive are those of the source. Cut-off read from the data, not from the text of the source: active = GI50 up to about 1.1 µM and inactive = higher.
What was measured:
Experiment in all cases: inhibition of tumour cell growth, NCI panel, 48 h
786-0 = system: 786-0
A549 = system: A549
ACHN = system: ACHN
COLO 205 = system: COLO 205
DMS-114 = system: DMS-114
DMS-273 = system: DMS-273
EKVX = system: EKVX
HCC 2998 = system: HCC 2998
HCT-116 = system: HCT-116
HCT-15 = system: HCT-15
HOP-92 = system: HOP-92
HT-29 = system: HT-29
K562 = system: K562
KM-20L2 = system: KM-20L2
KM12 = system: KM12
LXFL 529 = system: LXFL 529
MOLT-4 = system: MOLT-4
Malme-3M = system: Malme-3M
NCI-H226 = system: NCI-H226
NCI-H23 = system: NCI-H23
OVCAR-5 = system: OVCAR-5
OVCAR-8 = system: OVCAR-8
RPMI-8226 = system: RPMI-8226
RXF 393 = system: RXF 393
SF-268 = system: SF-268
SF-295 = system: SF-295
SF-539 = system: SF-539
SK-MEL-28 = system: SK-MEL-28
SK-MEL-2 = system: SK-MEL-2
SN12C = system: SN12C
SNB-19 = system: SNB-19
SNB-78 = system: SNB-78
SR = system: SR
SW-620 = system: SW-620
TK-10 = system: TK-10
U-251 = system: U-251
UACC-257 = system: UACC-257
UO-31 = system: UO-31
A498 = system: A498
CAKI-1 = system: CAKI-1
DLD-1 = system: DLD-1
HL-60 = system: HL-60
HOP-62 = system: HOP-62
IGROV-1 = system: IGROV-1
LOX IMVI = system: LOX IMVI
M14 = system: M14
M19-MEL = system: M19-MEL
NCI-H460 = system: NCI-H460
OVCAR-3 = system: OVCAR-3
OVCAR-4 = system: OVCAR-4
SK-MEL-5 = system: SK-MEL-5
SK-OV-3 = system: SK-OV-3
SNB-75 = system: SNB-75
XF498 = system: XF498
CCRF-CEM = system: CCRF-CEM
NCI-H522 = system: NCI-H522
UACC-62 = system: UACC-62
BT-549 = system: BT-549
DU-145 = system: DU-145
Hs-578T = system: Hs-578T
MCF7 = system: MCF7
MDA-MB-231 = system: MDA-MB-231
MDA-MB-435 = system: MDA-MB-435
MDA-N = system: MDA-N
NCI/ADR-RES = system: NCI/ADR-RES
PC-3 = system: PC-3
T47D = system: T47D

Structure (SMILES): COC(=O)c1cc(Cl)ccc1NC(=O)C1CCCCC1
- GI50 (786-0): > 100 µM (inactive)
- GI50 (A549): > 100 µM (inactive)
- GI50 (ACHN): > 100 µM (inactive)
- GI50 (COLO 205): > 100 µM (inactive)
- GI50 (DMS-114): > 100 µM (inactive)
- GI50 (DMS-273): > 100 µM (inactive)
- GI50 (EKVX): > 100 µM (inactive)
- GI50 (HCC 2998): > 100 µM (inactive)
- GI50 (HCT-116): > 100 µM (inactive)
- GI50 (HCT-15): > 100 µM
- GI50 (HOP-92): 22.8 µM (inactive)
- GI50 (HT-29): > 100 µM (inactive)
- GI50 (K562): > 100 µM (inactive)
- GI50 (KM-20L2): > 100 µM (inactive)
- GI50 (KM12): > 100 µM (inactive)
- GI50 (LXFL 529): > 100 µM (inactive)
- GI50 (MOLT-4): 23.2 µM (inactive)
- GI50 (Malme-3M): > 100 µM (inactive)
- GI50 (NCI-H226): > 100 µM (inactive)
- GI50 (NCI-H23): > 100 µM (inactive)
- GI50 (OVCAR-5): > 100 µM (inactive)
- GI50 (OVCAR-8): > 100 µM (inactive)
- GI50 (RPMI-8226): > 100 µM (inactive)
- GI50 (RXF 393): 33.1 µM (inactive)
- GI50 (SF-268): 48.1 µM (inactive)
- GI50 (SF-295): > 100 µM (inactive)
- GI50 (SF-539): > 100 µM (inactive)
- GI50 (SK-MEL-28): > 100 µM (inactive)
- GI50 (SK-MEL-2): > 100 µM (inactive)
- GI50 (SN12C): 74.6 µM (inactive)
- GI50 (SNB-19): > 100 µM (inactive)
- GI50 (SNB-78): > 100 µM (inactive)
- GI50 (SR): > 100 µM (inactive)
- GI50 (SW-620): > 100 µM (inactive)
- GI50 (TK-10): 92.7 µM (inactive)
- GI50 (U-251): > 100 µM (inactive)
- GI50 (UACC-257): > 100 µM (inactive)
- GI50 (UO-31): 17.6 µM (inactive)

Structure (SMILES): Cn1c2ccccc2n2c(=O)c3c(c(C#N)c12)CCCC3
- GI50 (786-0): > 100 µM (inactive)
- GI50 (A498): > 100 µM (inactive)
- GI50 (A549): > 100 µM (inactive)
- GI50 (ACHN): > 100 µM (inactive)
- GI50 (CAKI-1): > 100 µM (inactive)
- GI50 (COLO 205): > 100 µM (inactive)
- GI50 (DLD-1): > 100 µM (inactive)
- GI50 (DMS-114): > 100 µM (inactive)
- GI50 (DMS-273): > 100 µM (inactive)
- GI50 (EKVX): > 100 µM (inactive)
- GI50 (HCC 2998): > 100 µM (inactive)
- GI50 (HCT-116): > 100 µM (inactive)
- GI50 (HCT-15): > 100 µM
- GI50 (HL-60): > 100 µM (inactive)
- GI50 (HOP-62): > 100 µM (inactive)
- GI50 (HT-29): > 100 µM (inactive)
- GI50 (IGROV-1): > 100 µM (inactive)
- GI50 (K562): > 100 µM (inactive)
- GI50 (KM-20L2): > 100 µM (inactive)
- GI50 (KM12): > 100 µM (inactive)
- GI50 (LOX IMVI): > 100 µM (inactive)
- GI50 (M14): > 100 µM (inactive)
- GI50 (M19-MEL): > 100 µM (inactive)
- GI50 (MOLT-4): > 100 µM (inactive)
- GI50 (Malme-3M): > 100 µM (inactive)
- GI50 (NCI-H226): > 100 µM (inactive)
- GI50 (NCI-H23): > 100 µM (inactive)
- GI50 (NCI-H460): > 100 µM (inactive)
- GI50 (OVCAR-3): > 100 µM (inactive)
- GI50 (OVCAR-4): > 100 µM (inactive)
- GI50 (OVCAR-5): > 100 µM (inactive)
- GI50 (OVCAR-8): > 100 µM (inactive)
- GI50 (RPMI-8226): > 100 µM (inactive)
- GI50 (RXF 393): > 100 µM (inactive)
- GI50 (SF-268): > 100 µM (inactive)
- GI50 (SF-295): > 100 µM (inactive)
- GI50 (SF-539): > 100 µM (inactive)
- GI50 (SK-MEL-28): > 100 µM (inactive)
- GI50 (SK-MEL-2): > 100 µM (inactive)
- GI50 (SK-MEL-5): > 100 µM (inactive)
- GI50 (SK-OV-3): > 100 µM (inactive)
- GI50 (SN12C): > 100 µM (inactive)
- GI50 (SNB-19): > 100 µM (inactive)
- GI50 (SNB-75): 0.792 µM (active)
- GI50 (SNB-78): > 100 µM (inactive)
- GI50 (SR): > 100 µM (inactive)
- GI50 (SW-620): > 100 µM (inactive)
- GI50 (TK-10): > 100 µM (inactive)
- GI50 (U-251): > 100 µM (inactive)
- GI50 (UACC-257): > 100 µM (inactive)
- GI50 (UO-31): > 100 µM (inactive)
- GI50 (XF498): > 100 µM (inactive)

Structure (SMILES): CC1(C(=O)Nc2ccc3ccccc3c2)CC2(C)CC(C)(C1)C(O)NC2=O (configuration not stated)
- GI50 (A498): > 100 µM (inactive)
- GI50 (A549): > 100 µM (inactive)
- GI50 (ACHN): > 100 µM (inactive)
- GI50 (CCRF-CEM): > 100 µM (inactive)
- GI50 (DMS-273): > 100 µM (inactive)
- GI50 (EKVX): > 100 µM (inactive)
- GI50 (HL-60): > 100 µM (inactive)
- GI50 (HOP-62): > 100 µM (inactive)
- GI50 (HOP-92): > 100 µM (inactive)
- GI50 (HT-29): > 100 µM (inactive)
- GI50 (IGROV-1): > 100 µM (inactive)
- GI50 (KM12): > 100 µM (inactive)
- GI50 (M14): > 100 µM (inactive)
- GI50 (M19-MEL): > 100 µM (inactive)
- GI50 (MOLT-4): > 100 µM (inactive)
- GI50 (NCI-H23): > 100 µM (inactive)
- GI50 (NCI-H460): > 100 µM (inactive)
- GI50 (NCI-H522): > 100 µM (inactive)
- GI50 (OVCAR-5): > 100 µM (inactive)
- GI50 (OVCAR-8): 86.9 µM (inactive)
- GI50 (RXF 393): > 100 µM (inactive)
- GI50 (SF-268): > 100 µM (inactive)
- GI50 (SF-295): > 100 µM (inactive)
- GI50 (SK-MEL-28): > 100 µM (inactive)
- GI50 (SK-OV-3): > 100 µM (inactive)
- GI50 (SNB-19): > 100 µM (inactive)
- GI50 (SNB-78): > 100 µM (inactive)
- GI50 (SR): > 100 µM (inactive)
- GI50 (TK-10): > 100 µM (inactive)
- GI50 (U-251): > 100 µM (inactive)
- GI50 (UACC-257): 81.5 µM (inactive)
- GI50 (UACC-62): > 100 µM (inactive)
- GI50 (UO-31): > 100 µM (inactive)

Structure (SMILES): NC(=O)c1ccc(N)nc1 [6-AMINONICOTINAMIDE]
- GI50 (786-0): 3.54 µM (inactive)
- GI50 (A498): 14.9 µM (inactive)
- GI50 (A549): 54.5 µM (inactive)
- GI50 (ACHN): 54.3 µM (inactive)
- GI50 (BT-549): 14.1 µM (inactive)
- GI50 (CAKI-1): 17.6 µM (inactive)
- GI50 (CCRF-CEM): 12.3 µM (inactive)
- GI50 (COLO 205): 14.2 µM (inactive)
- GI50 (DU-145): 2.3 µM (inactive)
- GI50 (EKVX): 21.7 µM (inactive)
- GI50 (HCC 2998): 31.5 µM (inactive)
- GI50 (HCT-116): > 187 µM (inactive)
- GI50 (HCT-15): 17.5 µM
- GI50 (HL-60): 53.3 µM (inactive)
- GI50 (HOP-62): 12 µM (inactive)
- GI50 (HOP-92): 213 µM (inactive)
- GI50 (HT-29): 3.93 µM (inactive)
- GI50 (Hs-578T): 6.17 µM (inactive)
- GI50 (IGROV-1): 108 µM (inactive)
- GI50 (K562): 16.7 µM (inactive)
- GI50 (KM12): 48.1 µM (inactive)
- GI50 (LOX IMVI): 3.35 µM (inactive)
- GI50 (M14): 6.24 µM (inactive)
- GI50 (MCF7): 0.389 µM (active)
- GI50 (MDA-MB-231): 39.4 µM (inactive)
- GI50 (MDA-MB-435): 4.66 µM (inactive)
- GI50 (MDA-N): 14.3 µM (inactive)
- GI50 (MOLT-4): 38.6 µM (inactive)
- GI50 (Malme-3M): 33.2 µM (inactive)
- GI50 (NCI-H226): 35.7 µM (inactive)
- GI50 (NCI-H23): 9.98 µM (inactive)
- GI50 (NCI-H460): 5.16 µM (inactive)
- GI50 (NCI-H522): 99.8 µM (inactive)
- GI50 (NCI/ADR-RES): > 245 µM (inactive)
- GI50 (OVCAR-3): 67.8 µM (inactive)
- GI50 (OVCAR-4): 7.01 µM (inactive)
- GI50 (OVCAR-5): > 322 µM (inactive)
- GI50 (OVCAR-8): 17.6 µM (inactive)
- GI50 (PC-3): 29.7 µM (inactive)
- GI50 (RPMI-8226): 9.75 µM (inactive)
- GI50 (RXF 393): 0.138 µM (active)
- GI50 (SF-268): 19.1 µM (inactive)
- GI50 (SF-295): 5.07 µM (inactive)
- GI50 (SF-539): 8.43 µM (inactive)
- GI50 (SK-MEL-28): 3.37 µM (inactive)
- GI50 (SK-MEL-2): 124 µM (inactive)
- GI50 (SK-MEL-5): 0.759 µM (active)
- GI50 (SK-OV-3): > 400 µM (inactive)
- GI50 (SN12C): 15.9 µM (inactive)
- GI50 (SNB-19): 14.7 µM (inactive)
- GI50 (SNB-75): 15.6 µM (inactive)
- GI50 (SR): 14.3 µM (inactive)
- GI50 (SW-620): 82 µM (inactive)
- GI50 (T47D): > 255 µM (inactive)
- GI50 (TK-10): > 400 µM (inactive)
- GI50 (U-251): 1.85 µM (inactive)
- GI50 (UACC-257): 0.986 µM (active)
- GI50 (UACC-62): 16.1 µM (inactive)
- GI50 (UO-31): 29.4 µM (inactive)
